Experimental data: US20210000953A1, “USE OF IMMUNE CHECKPOINT INHIBITORS IN CENTRAL NERVOUS SYSTEMS NEOPLASMS” (Bristol-Myers Squibb Company, priority 2014, published 2021)
Entries after “also recorded” stand apart in the source; their conditions may differ.

Columns and labels:
Tregs = experiment: Cytokine release from sorted Tregs (CD4+CD25+CD127−) ± stimulation; assay type: cell-based, human; conditions: GBM patients on nivolumab treatment
Description: Analyses were performed on peripheral blood drawn from patients at predetermined time points (FIG. 13) and tumor tissue samples were obtained if resection was performed at the time of progression or suspected progression. Baseline and on-treatment samples were obtained from patients (n=20) randomized 1:1 to receive either nivolumab 3 mg/kg every 2 weeks (Q2W) or nivolumab 1 mg/kg+ipilimumab 3 mg/kg every 3 weeks followed by nivolumab 3 mg/kg Q2W (FIG. 13). Phenotypic, maturation, and proliferation analyses were performed using flow cytometry with population-specific antibody panels (Table 11). Cytokine release analyses were carried out on supernatants from sorted Tregs (CD4+CD25+CD127−)±stimulation (PMA+ionomycin). The anti-tumor-associated antigen (TAA) activity of peripheral blood mononuclear cells (PBMCs) and tumor-infiltrating lymphocytes (TILs) was evaluated. Cells were stimulated with interleukin (IL)-2, IL-15, and TAA peptides; after 9 days of culture with IL-2 and IL-15, cells were restimulated with IL-2, IL-15, and TAA peptides. Production of interferon (IFN)γ/granzyme B was assayed using a dual-color FluoroSpot assay.

[1] = tested on: resected GBM tumor tissue; experiment: Histopathology of tumor tissue resected at suspected progression; assay type: in vivo, human
Description: In those cases in which radiologic progression cannot be differentiated from pseudoprogression and it is the investigator's opinion that a surgical resection to obtain tumor tissue for histopathology is in the subject's best interests, a surgical resection may be performed following consultation with the BMS medical monitor. Tumor biopsy samples (blocks or slides) must be submitted for central review by a neuropathologist to minimize any inter-observer variation in the histopathologic assessment of progression versus treatment-related changes. If tumor pathology confirms progression, then the subject will be discontinued from study medication per protocol discontinuation criteria and the date of progression will be the day that it was first suspected. […] An MRI after the resection is required prior to treatment continuation. The subject will then continue all on-treatment tumor assessments as per the treatment schedule.
In those cases in which radiologic progression cannot be differentiated from pseudoprogression and the subject undergoes a biopsy or diagnostic surgical resection to obtain tumor tissue for histopathology analysis, representative tumor tissue samples will be reviewed locally and submitted for central review by a neuropathologist. If there is discordance between the central and local neuropathologic determination of progression versus treatment-associated changes (pseudoprogression), then a second central neuropathologic review will be performed and serve as the final adjudication of the histopathologic determination. Central review of histopathology will be blinded to the subject treatment arm assignment. Specific instructions will be provided to the investigative sites regarding the requirements for submission of tumor tissue for central neuropathologic review.

[2] = tested on: subjects with recurrent GBM; experiment: Study CA209143 safety lead-in cohorts (Cohort 1, 1b): safety, tolerability and patient disposition; assay type: in vivo, human
Description: This is the first study examining monoclonal antibodies targeting immune checkpoint inhibitors in subjects with recurrent GBM. To ensure that nivolumab monotherapy and nivolumab in combination with ipilimumab are tolerable, safety lead-in cohorts (Cohort 1, 1b) evaluating the tolerability of two different treatment regimens were initiated prior to advancing a treatment arm into Cohort 2. Cohort 1 examined in a randomized fashion the safety and tolerability of nivolumab monotherapy dosed at 3 mg/kg every 2 weeks or nivolumab 1 mg/kg+ipilimumab 3 mg/kg every 3 weeks for four doses, then nivolumab 3 mg/kg every 2 weeks thereafter. Cohort 1b examined, in a non-randomized fashion, the safety and tolerability of nivolumab 3 mg/kg+ipilimumab 1 mg/kg every 3 weeks for four doses, then nivolumab 3 mg/kg every 2 weeks thereafter.
A randomized, open-label, multicenter, phase 3 study of nivolumab monotherapy versus bevacizumab and a safety study of nivolumab and nivolumab in combination with ipilimumab is conducted in adult (>18 years) subjects with a first recurrence of GBM after treatment with radiotherapy and temozolomide. Since the use of nivolumab and ipilimumab has not previously been studied in subjects with GBM, a safety lead-in (Cohort 1) consisting of approximately 10 subjects in each of two treatment arms are enrolled and randomized to treatment with either Arm N (nivolumab monotherapy) or Arm N+I (nivolumab combined with ipilimumab). Tolerability and safety of a treatment arm is determined after all subjects in the arm completed four doses or discontinued dosing prior to completing four doses. A safety evaluation of Cohort 1 is conducted for each arm based on criteria described herein.
Subjects will be evaluated for safety if they have received any study drug. […]
The causal relationship to study drug is determined by a physician and should be used to assess all adverse events (AE). […]
Tolerability and safety of a treatment arm was determined after all subjects per arm have completed four doses or discontinued dosing prior to completing four doses. […]

[3] = Phase 1 study of nivolumab; cited from earlier work
[4] = case: nivolumab 3 mg/kg, after five treatments

For nivolumab, the “Production of IFNγ by Tregs” value (Tregs) was “increase production of IFNγ”, the “Histopathology of the resected tumor” value ([1]; case: after five doses of nivolumab 3 mg/kg Q2W, suspected progression) was “immune infiltration consistent with treatment-related changes; also recorded: consistent with significant treatment-related changes” and the “Pathology review of resection, occipital area” value [1, 4] was “viable tumor in samples from the occipital area with infiltrating T-lymphocytes”. The “Pathology review of resection, periventricular area” value [1, 4] was “only necrosis and fibrinous exudate (radiation necrosis) and large aggregates of lymphocytes with no tumor”, the “Patients in the study: Died” value ([2]; Cohort 1, N = 10 per arm, same regimens, deaths in both arms were due to disease, cutoff Sep. 9, 2015) was 7 (70) n (%) and the “Deaths due to drug toxicity” value ([2]; Cohort 1, nivolumab 3 mg/kg monotherapy arm and nivolumab 1 mg/kg + ipilimumab 3 mg/kg combination arm, N = 10 each) was “no deaths due to drug toxicity”. For the same substance, the “Reason for not continuing on treatment: Disease Progression” value ([2]; Cohort 1, recurrent GBM, N = 10 per arm, nivolumab 3 mg/kg Q2W or nivolumab 1 mg/kg + ipilimumab 3 mg/kg Q3W x4 then nivolumab 3 mg/kg Q2W, cutoff Sep. 9, 2015) was 9 (90) n (%) and the “Subjects with apparent progression of disease before objective response and/or stable disease” value [3] was “approximately 10%”.
